Results taken from patent US20080103191A1, “ENTACAPONE-DERIVATIVES” (priority 2006, published 2008).
≈ marks a conversion by molar mass, not a printed value. Like-named read-outs stand apart in the source and are kept apart here.

Columns and labels:
[1] = Chemical hydrolysis stability at pH 1 and pH 7.4 (HPLC); assay type: physicochemical; conditions: 37° C., over 12 h
In short: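 Compound dissolved in 0.1 N HCl or PBS and held at 37° C over 12 h, sampling at set intervals for remaining prodrug by reversed-phase C8 HPLC with 220 nm detection. Peak areas expressed relative to first injection, ln-plotted against time; t1/2 [h] derived assuming first-order kinetics.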

[2] = Solubility in 0.1 N HCl, PBS buffer, FaSSIF and FeSSIF; assay type: physicochemical; conditions: thermodynamic from solid
In short: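 Excess compound was shaken for 10 min at ambient temperature in 0.1 N HCl (pH 1), PBS (pH 7.4), FaSSIF (pH 6.5) or FeSSIF (pH 5.0). After centrifugation, the dissolved concentration was measured by reversed-phase HPLC with UV detection at 220 nm.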

[3] = Log D (pH 7.4) by isocratic HPLC; assay type: physicochemical; conditions: YMC Pro C18 column, phosphate buffer pH 7.4/acetonitrile 45/55
In short: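 Retention measured by isocratic HPLC on a C18 column (150 mm×4.0 mm, 3 μm) eluted with phosphate buffer pH 7.4/acetonitrile 45/55 (v/v) at 1.2 ml/min, run time 15-60 min. Detection at 220 nm.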

[4] = Plasma stability ex vivo; assay type: in vitro ADME; conditions: human plasma, 37° C., read-out: t1/2 plasma
Method: Plasma stability is determined in human and rat plasma ex vivo. For the determination of the plasma stability of the compounds of formula I, the test compounds were incubated with human plasma (c=5 μg/mL) at 37° C. for certain time intervals up to 60, resp. 120 min (depending on the compound). Afterwards the incubations were stopped by equivalent addition of acetonitrile for protein precipitation, and the samples were mixed and centrifuged. The supernatants were adequately diluted and analyzed by HPLC with UV detection at 305 nm.
The degradation of the compounds of formula I as well as the formation of the active drug entacapone were monitored, and the half-life times of the compounds of formula I were calculated from the obtained peak areas.

[5] = Solubility in Labrasol and TPGS/PG formulations; assay type: physicochemical
Method: Selected lipophilic carbonate compounds of formula I with promising Caco-2 permeabilities are formulated with different lipids/lipophilic excipients and/or micelles forming compounds in order to increase their solubilities. The following formulations are prepared by mixing the ingredients mentioned below: • i) Formulations comprising solubilizers in the form of lipides/lipophilic excipients: • ia) Formulation comprising Labrasol® and the selected compounds of Formula I • Labrasol®: • Caprylocaproyl macrogol-8-glyceride (CAS No. 85536-07-8 and 84963-88-2). This is a mixture of mono-, di- and triesters of glycerol and of PEG 400 with medium-chain fatty acids (C8-C10) which is marketed, for example, by Gattefossé under the mark Labrasol®; Labrasol® has an HLB value (hydrophil-lipophil-balance, Griffin, W. C.: Classification of surface active agents by HLB, J. Soc. Cosmet. 1, 1949) of 14 and has the following composition by weight:
• ib) Formulation comprising NanoSolve® 5401 (Lipoid GmbH, Germany) and the selected compounds of formula I • ic) Formulation comprising TPGS/PG in a weight ratio of 25% by weight of TPGS to 75% by weight of PG and the selected compounds of formula I. • PG: propylene glycol • TPGS: Vitamin E TPGS NF (d-α-tocopheryl polyethylene glycol 1000 succinate) which is marketed, for example, by Eastman Chemical Co • ii) Formulation comprising a micelles forming agent: • iia) Aqueous formulation comprising 30% by weight of Cremophor® RH 40 (relating to the weight of the aqueous phase) in water and the selected compounds of formula I • Cremophor® RH 40: • Generic names: • Polyoxyl 40 Hydrogenated Castor Oil (USP/NF). • Macrogol-Glycerolhydroxystearat (DAB). • Polyoxyethylenglyceroltrihydroxystearat (DAC). • Cremophor RH 40 is a non-ionic solubilizer and emulsifying agent obtained by reacting 45 moles of ethylene oxide with 1 mole of hydrogenated castor oil. The main constituent of Cremophor RH 40 is glycerol polyethylene glycol oxystearate, which, together with fatty acid glycerol polyglycol esters, forms the hydrophobic part of the product. The hydrophilic part consists of polyethylene glycols and glycerol ethoxylate. Cremophor RH 40 is a white to yellowish thin paste at 20° C. The HLB value lies between 14 and 16. Cremophor RH 40 is marketed by BASF AG.
The solubility of selected compounds of formula I in these formulations is measured and compared to the solubility of the compounds in 0.1N HCl (pH 1.0), PBS buffer (pH 7.4), and two simulated gastric fluids (i.e., FaSSIF (pH 6.5) simulating fasting sate and FeSSIF (pH 5.0) simulating fed state) (see above for details).

[6] = pH 1, 0.1 N HCl, read-out: t1/2 at pH 1 (converted)
[7] = pH 7.4, PBS buffer, read-out: t1/2 at pH 7.4 (converted)
[8] = FaSSIF, pH 6.5, fassif, Table 11, read-out: Solubility FaSSIF pH 6.5
[9] = FaSSIF, pH 6.5, fassif, fasting state fluid, ambient temperature, read-out: Solubility FaSSIF Ph 6.5
[10] = FeSSIF, pH 5, fessif, Table 11, read-out: Solubility FeSSIF pH 5.0
[11] = FeSSIF, pH 5, fessif, fed state fluid, ambient temperature, read-out: Solubility FeSSIF Ph 5.0
[12] = PBS buffer, pH 7.4, aqueous buffer, Table 11, read-out: Solubility PBS pH 7.4
[13] = PBS buffer, pH 7.4, aqueous buffer, ambient temperature, read-out: Solubility PBS Ph 7.4
[14] = Labrasol, oil or lipid, read-out: Solubility Labrasol ®
[15] = organic solvent or mixture, 25% by weight TPGS, 75% by weight PG, read-out: Solubility TPGS/PG

| half-life [1, 6] | half-life [1, 7] | solubility at 10 min [2, 8] | solubility at 10 min [2, 9] | solubility at 10 min [2, 10] | solubility at 10 min [2, 11] | solubility at 10 min [2, 12] | solubility at 10 min [2, 13] | chromatographic logD [3] | half-life at 5 μg/mL [4] | solubility [5, 14] | solubility [5, 15] | solubility at 10 min ([2]; 0.1 N HCl, pH 1, simulated gastric fluid, Table 11, maximum solubility, read-out: Solubility 0.1N HCl pH 1.0) | solubility at 10 min ([2]; 0.1 N HCl, pH 1, simulated gastric fluid, ambient temperature, shaken 10 min, read-out: Solubility 0.1N HCl Ph 1.0) | Compound |
| --- | --- | --- | --- | --- | --- | --- | --- | --- | --- | --- | --- | --- | --- | --- |
| 15.6 h | 7.2 h | 180 µg/mL (≈ 390 µM) | 180 µg/mL (≈ 390 µM) | 190 µg/mL (≈ 412 µM) | 190 µg/mL (≈ 412 µM) | 150 µg/mL (≈ 325 µM) | 150 µg/mL (≈ 325 µM) | 2.9 | 1.48 h | 50000 µg/mL (≈ 108000 µM) | 2400 µg/mL (≈ 5200 µM) | – | – | CCCCC(CC)COC(=O)Oc1cc(/C=C(\C#N)C(=O)N(CC)CC)cc([N+](=O)[O-])c1O (stereo not shown) [Compound 15, Carbonic acid 5-((E)-2-cyano-2-diethylcarbamoyl-vinyl)-2-hydroxy-3-nitro-phenyl ester 2-ethyl-hexyl ester] |
| 14.4 h | 6.8 h | 150 µg/mL (≈ 325 µM) | 150 µg/mL (≈ 325 µM) | 150 µg/mL (≈ 325 µM) | 150 µg/mL (≈ 325 µM) | 130 µg/mL (≈ 282 µM) | 130 µg/mL (≈ 282 µM) | 3.1 | 2 h | > 36000 µg/mL | 2300 µg/mL (≈ 4980 µM) | – | – | CCCCCCCCOC(=O)Oc1cc(/C=C(\C#N)C(=O)N(CC)CC)cc([N+](=O)[O-])c1O [Compound 35, Carbonic acid 5-((E)-2-cyano-2-diethylcarbamoyl-vinyl)-2-hydroxy-3-nitro-phenyl ester octyl ester] |
| 16.5 h | 7.7 h | 140 µg/mL (≈ 314 µM) | 140 µg/mL (≈ 314 µM) | 30 µg/mL (≈ 67.3 µM) | 30 µg/mL (≈ 67.3 µM) | 260 µg/mL (≈ 584 µM) | 260 µg/mL (≈ 584 µM) | 2.3 | 0.302 h | 22000 µg/mL (≈ 49400 µM) | 2500 µg/mL (≈ 5610 µM) | – | – | CCN(CC)C(=O)/C(C#N)=C/c1cc(OC(=O)OCC2CCCCC2)c(O)c([N+](=O)[O-])c1 [Compound 57, Carbonic acid 5-((E)-2-cyano-2-diethylcarbamoyl-vinyl)-2-hydroxy-3-nitro-phenyl ester cyclohexylmethyl ester] |
| 28.9 h | 28.9 h | 750 µg/mL (≈ 1790 µM) | 750 µg/mL (≈ 1790 µM) | 170 µg/mL (≈ 405 µM) | 170 µg/mL (≈ 405 µM) | 1230 µg/mL (≈ 2930 µM) | 1230 µg/mL (≈ 2930 µM) | 1.4 | – | 10000 µg/mL (≈ 23800 µM) | 1800 µg/mL (≈ 4290 µM) | 20 µg/mL (≈ 47.7 µM) | 20 µg/mL (≈ 47.7 µM) | CCCC(C)OC(=O)Oc1cc(/C=C(\C#N)C(=O)N(CC)CC)cc([N+](=O)[O-])c1O (stereo not shown) [Compound 63, Carbonic acid 5-((E)-2-cyano-2-diethylcarbamoyl-vinyl)-2-hydroxy-3-nitro-phenyl ester 1-methyl-butyl ester] |
